Measured values as given in the NIST ThermoML archive (doi:10.1016/j.jct.2013.06.008).
Numbers after ± are expanded uncertainties.

Conditions: 100 kPa, Liquid; for electrical conductivity: Alternating current cell with electrodes
[1] = 288.15 K, Buoyancy - hydrostatic balance
[2] = 293.15 K, Buoyancy - hydrostatic balance
[3] = 298.15 K, Buoyancy - hydrostatic balance
[4] = 298.15 K, Capillary tube (Ostwald / Ubbelohde) method
[5] = 303.15 K, Buoyancy - hydrostatic balance
[6] = 303.15 K, Capillary tube (Ostwald / Ubbelohde) method
[7] = 308.15 K, Buoyancy - hydrostatic balance
[8] = 308.15 K, Capillary tube (Ostwald / Ubbelohde) method
[9] = 313.15 K, Buoyancy - hydrostatic balance
[10] = 313.15 K, Capillary tube (Ostwald / Ubbelohde) method
[11] = 318.15 K, Buoyancy - hydrostatic balance
[12] = 318.15 K, Capillary tube (Ostwald / Ubbelohde) method
[13] = 323.15 K, Buoyancy - hydrostatic balance
[14] = 323.15 K, Capillary tube (Ostwald / Ubbelohde) method
[15] = 328.15 K, Buoyancy - hydrostatic balance
[16] = 328.15 K, Capillary tube (Ostwald / Ubbelohde) method
[17] = 333.15 K, Buoyancy - hydrostatic balance
[18] = 333.15 K, Capillary tube (Ostwald / Ubbelohde) method
[19] = 338.15 K, Buoyancy - hydrostatic balance
[20] = 338.15 K, Capillary tube (Ostwald / Ubbelohde) method
[21] = 343.15 K, Capillary tube (Ostwald / Ubbelohde) method
[22] = 348.15 K, Capillary tube (Ostwald / Ubbelohde) method
[23] = 353.15 K, Capillary tube (Ostwald / Ubbelohde) method

Structure (SMILES): CCCCCC[n+]1cccc(C)c1.O=S(=O)([N-]S(=O)(=O)C(F)(F)F)C(F)(F)F
- electrical conductivity (278.15 K): 0.0495 ± 0.001 S/m
- electrical conductivity (283.15 K): 0.067 ± 0.0013 S/m
- mass density (283.15 K, Buoyancy - hydrostatic balance): 1373.6 ± 2 kg/m3
- electrical conductivity (288.15 K): 0.0885 ± 0.0018 S/m
- mass density [1]: 1369.7 ± 2 kg/m3
- electrical conductivity (293.15 K): 0.116 ± 0.0023 S/m
- mass density [2]: 1365.3 ± 2 kg/m3
- electrical conductivity (298.15 K): 0.148 ± 0.003 S/m
- mass density [3]: 1361.5 ± 2 kg/m3
- viscosity [4]: 86.59 ± 2.1 mPa·s
- electrical conductivity (303.15 K): 0.187 ± 0.0037 S/m
- mass density [5]: 1357 ± 2 kg/m3
- viscosity [6]: 67.83 ± 1.6 mPa·s
- electrical conductivity (308.15 K): 0.231 ± 0.005 S/m
- mass density [7]: 1352.9 ± 2 kg/m3
- viscosity [8]: 54.23 ± 1.2 mPa·s
- electrical conductivity (313.15 K): 0.283 ± 0.006 S/m
- mass density [9]: 1348.7 ± 2 kg/m3
- viscosity [10]: 44.24 ± 0.99 mPa·s
- electrical conductivity (318.15 K): 0.342 ± 0.007 S/m
- mass density [11]: 1344.7 ± 2 kg/m3
- viscosity [12]: 36.21 ± 0.81 mPa·s
- electrical conductivity (323.15 K): 0.406 ± 0.008 S/m
- mass density [13]: 1340.3 ± 2 kg/m3
- viscosity [14]: 29.97 ± 0.67 mPa·s
- electrical conductivity (328.15 K): 0.477 ± 0.01 S/m
- mass density [15]: 1336 ± 2 kg/m3
- viscosity [16]: 25.08 ± 0.55 mPa·s
- electrical conductivity (333.15 K): 0.553 ± 0.011 S/m
- mass density [17]: 1331.7 ± 2 kg/m3
- viscosity [18]: 21.31 ± 0.47 mPa·s
- electrical conductivity (338.15 K): 0.638 ± 0.013 S/m
- mass density [19]: 1328 ± 2 kg/m3
- viscosity [20]: 18.28 ± 0.4 mPa·s
- electrical conductivity (343.15 K): 0.728 ± 0.015 S/m
- viscosity [21]: 15.88 ± 0.35 mPa·s
- electrical conductivity (348.15 K): 0.822 ± 0.016 S/m
- viscosity [22]: 13.71 ± 0.3 mPa·s
- electrical conductivity (353.15 K): 0.92 ± 0.018 S/m
- viscosity [23]: 11.99 ± 0.26 mPa·s

Structure (SMILES): CCCCCC[n+]1ccc(C)cc1.O=S(=O)([N-]S(=O)(=O)C(F)(F)F)C(F)(F)F
- electrical conductivity (283.15 K): 0.0839 ± 0.0017 S/m
- viscosity (283.15 K, Concentric cylinders viscometry): 181.62 ± 5.1 mPa·s
- mass density (283.15 K, Vibrating tube method): 1365.3 ± 2.1 kg/m3
- electrical conductivity (288.15 K): 0.11 ± 0.0022 S/m
- viscosity (288.15 K, Concentric cylinders viscometry): 133.92 ± 3.6 mPa·s
- mass density (288.15 K, Vibrating tube method): 1360.8 ± 2.1 kg/m3
- electrical conductivity (293.15 K): 0.145 ± 0.0029 S/m
- viscosity (293.15 K, Concentric cylinders viscometry): 101.07 ± 2.5 mPa·s
- mass density (293.15 K, Vibrating tube method): 1356.3 ± 2.1 kg/m3
- electrical conductivity (298.15 K): 0.185 ± 0.0037 S/m
- viscosity (298.15 K, Concentric cylinders viscometry): 77.99 ± 1.8 mPa·s
- mass density (298.15 K, Vibrating tube method): 1351.8 ± 2.1 kg/m3
- electrical conductivity (303.15 K): 0.231 ± 0.005 S/m
- viscosity (303.15 K, Concentric cylinders viscometry): 61.3 ± 1.4 mPa·s
- mass density (303.15 K, Vibrating tube method): 1347.4 ± 2.1 kg/m3
- electrical conductivity (308.15 K): 0.283 ± 0.006 S/m
- viscosity (308.15 K, Concentric cylinders viscometry): 49.03 ± 1.1 mPa·s
- mass density (308.15 K, Vibrating tube method): 1342.9 ± 2.1 kg/m3
- electrical conductivity (313.15 K): 0.346 ± 0.007 S/m
- viscosity (313.15 K, Concentric cylinders viscometry): 39.75 ± 0.89 mPa·s
- mass density (313.15 K, Vibrating tube method): 1338.5 ± 2.1 kg/m3
- electrical conductivity (318.15 K): 0.415 ± 0.008 S/m
- viscosity (318.15 K, Concentric cylinders viscometry): 32.73 ± 0.72 mPa·s
- mass density (318.15 K, Vibrating tube method): 1334.1 ± 2.1 kg/m3
- electrical conductivity (323.15 K): 0.487 ± 0.01 S/m
- viscosity (323.15 K, Concentric cylinders viscometry): 27.38 ± 0.6 mPa·s
- mass density (323.15 K, Vibrating tube method): 1329.6 ± 2.1 kg/m3
- electrical conductivity (328.15 K): 0.571 ± 0.011 S/m
- viscosity (328.15 K, Concentric cylinders viscometry): 23.11 ± 0.51 mPa·s
- mass density (328.15 K, Vibrating tube method): 1325.2 ± 2.1 kg/m3
- electrical conductivity (333.15 K): 0.652 ± 0.013 S/m
- viscosity (333.15 K, Concentric cylinders viscometry): 19.71 ± 0.43 mPa·s
- mass density (333.15 K, Vibrating tube method): 1320.8 ± 2.1 kg/m3
- electrical conductivity (338.15 K): 0.756 ± 0.015 S/m
- viscosity (338.15 K, Concentric cylinders viscometry): 16.97 ± 0.37 mPa·s
- mass density (338.15 K, Vibrating tube method): 1316.5 ± 2.1 kg/m3
- electrical conductivity (343.15 K): 0.861 ± 0.017 S/m
- viscosity (343.15 K, Concentric cylinders viscometry): 14.73 ± 0.32 mPa·s
- mass density (343.15 K, Vibrating tube method): 1312.1 ± 2.1 kg/m3
- electrical conductivity (348.15 K): 0.968 ± 0.019 S/m
- viscosity (348.15 K, Concentric cylinders viscometry): 12.87 ± 0.28 mPa·s
- mass density (348.15 K, Vibrating tube method): 1307.8 ± 2.1 kg/m3
- electrical conductivity (353.15 K): 1.07 ± 0.022 S/m
- viscosity (353.15 K, Concentric cylinders viscometry): 11.32 ± 0.24 mPa·s
- mass density (353.15 K, Vibrating tube method): 1303.4 ± 2 kg/m3

Structure (SMILES): CCC[n+]1cccc(C)c1.O=S(=O)([N-]S(=O)(=O)C(F)(F)F)C(F)(F)F
- electrical conductivity (278.15 K): 0.152 ± 0.003 S/m
- electrical conductivity (283.15 K): 0.199 ± 0.004 S/m
- electrical conductivity (288.15 K): 0.253 ± 0.005 S/m
- mass density [1]: 1459.6 ± 2 kg/m3
- electrical conductivity (293.15 K): 0.318 ± 0.006 S/m
- mass density [2]: 1455.6 ± 2 kg/m3
- electrical conductivity (298.15 K): 0.393 ± 0.008 S/m
- mass density [3]: 1451.4 ± 2 kg/m3
- viscosity [4]: 54.12 ± 1.2 mPa·s
- electrical conductivity (303.15 K): 0.476 ± 0.01 S/m
- mass density [5]: 1447.1 ± 2 kg/m3
- viscosity [6]: 43.46 ± 0.99 mPa·s
- electrical conductivity (308.15 K): 0.571 ± 0.011 S/m
- mass density [7]: 1442.6 ± 2 kg/m3
- viscosity [8]: 35.27 ± 0.79 mPa·s
- electrical conductivity (313.15 K): 0.671 ± 0.013 S/m
- mass density [9]: 1438 ± 2 kg/m3
- viscosity [10]: 29.18 ± 0.65 mPa·s
- electrical conductivity (318.15 K): 0.786 ± 0.016 S/m
- mass density [11]: 1433.2 ± 2 kg/m3
- viscosity [12]: 24.32 ± 0.54 mPa·s
- electrical conductivity (323.15 K): 0.904 ± 0.018 S/m
- mass density [13]: 1428.7 ± 2 kg/m3
- viscosity [14]: 20.87 ± 0.46 mPa·s
- electrical conductivity (328.15 K): 1.04 ± 0.021 S/m
- mass density [15]: 1424.5 ± 2 kg/m3
- viscosity [16]: 17.94 ± 0.39 mPa·s
- electrical conductivity (333.15 K): 1.18 ± 0.024 S/m
- mass density [17]: 1420.3 ± 2 kg/m3
- viscosity [18]: 15.15 ± 0.33 mPa·s
- electrical conductivity (338.15 K): 1.33 ± 0.027 S/m
- mass density [19]: 1416 ± 2 kg/m3
- viscosity [20]: 13.4 ± 0.29 mPa·s
- electrical conductivity (343.15 K): 1.49 ± 0.03 S/m
- viscosity [21]: 11.74 ± 0.25 mPa·s
- electrical conductivity (348.15 K): 1.65 ± 0.033 S/m
- viscosity [22]: 10.37 ± 0.22 mPa·s
- electrical conductivity (353.15 K): 1.83 ± 0.037 S/m
- viscosity [23]: 9.19 ± 0.2 mPa·s
